Counter-ions that a name gives are not always drawn.
Columns and labels:
HCT116 cells [1] = assay: Matrigel Invasion Chambers, HCT116 invasion; assay type: cell-based, human; details: increasing concentrations, 22 h, 10% FBS chemoattractant
Method: Matrigel Invasion Chambers [catalog number 354480 (BD Biosciences)] are useful to study cell invasion of malignant and normal cells. Matrigel Invasion Chambers can be used to study the mechanisms of invasion and to identify factors that interfere with this process in an in vitro environment. According to standard assays known to the skilled person, 5×10^4 HCT116 cells/ml were added in each case to the upper chamber of the Matrigel Invasion Chambers in the presence of increasing concentrations of “Example 1K”, whereas chemoatractant comprising 10% FBS was added to the lower chamber. The Invasion Chambers were incubated for 22 h in a humidified tissue culture incubator at 37° C., 5% CO2. Non-invading cells were removed by scrubing. The cells on the lower surface of the membrane were then stained with Diff-Quik™ stain. The results shown in FIG. 4 indicate that strong and selective CDK8 inhibitors as the “Example 1K” compound appear to be capable of repressing invasiveness of HCT116 colon cancer cells.

HCT116 cells [2] = assay: Combination with Oxaliplatin, MTS cell viability assay, Chou-Thalay method; assay type: cell-based, human
Text: Various well-accepted models exist for determination of synergistic and additive effect for two or more drugs in combination. As a matter of example combination index CI can be used as a quantitative measure of the degree of drug interaction in terms of synergism, additive effects and antagonism for a given endpoint of the measurement:
Synergism (C<1) greater than expected additive effect
Additive effect (CI=1) the combined effect predicted by the mass-action law principle in the absence of synergism or antagonism
Antagonism (CI>1) Smaller than expected additive effect
In the present example, the drug interactions between compound “Example 6” and Oxaliplatin which is a platinum-based type of anticancer chemotherapy medicine used to treat colorectal cancer were tested in HCT116 cells. Experimental data points in the MTS cell viability assay were spread for Oxaliplatin below and above the ED50 values in HCT116 cells, whereas concentration of the tested compounds was close to the apparent ED50. Chou-Thalay method for quantification of synergy was applied [Chou et al. Cancer Res. 15; 70(2):440-6, (2010)].

Compound | invasiveness of HCT116 cells (FIG. 4) (HCT116 cells [1]) | Combination Index (CI) (HCT116 cells [2]; Example 6 0.6 μM + Oxaliplatin 0.0010 μM) | Combination Index (CI) (HCT116 cells [2]; Example 6 0.6 μM + Oxaliplatin 0.01 μM) | Combination Index (CI) (HCT116 cells [2]; Example 6 0.6 μM + Oxaliplatin 0.1 μM) | Combination Index (CI) (HCT116 cells [2]; Example 6 0.6 μM + Oxaliplatin 1.0 μM) | Combination Index (CI) (HCT116 cells [2]; Example 6 0.6 μM + Oxaliplatin 2.5 μM) | Combination Index (CI) (HCT116 cells [2]; Example 6 0.6 μM + Oxaliplatin 5.0 μM)
Cc1c(Br)c(Br)c2c3c1nc(N1CCNCC1)n3CCC2 [Example 1K] | Repression of the invasiveness | – | – | – | – | – | –
Brc1c(Br)c2c3c(nc(N4CCNCC4)n3CCC2)c1Br [Example 6, 7,8,9-tribromo-2-(piperazin-1-yl)-5,6-dihydro-4H-imidazo[4,5,1-ij]quinoline maleate] | – | 1.15 | 0.99 | 1.11 | 0.69 | 0.38 | 0.29

— patent publication US9745299B2, “Substituted tricyclic benzimidazoles as kinase inhibitors” (SELVITA SA, priority 2012, dated 2017)
